Measurements published in patent US20130115618A1, “PHOSPHOLIPID PROFILING AND CANCER” (KATHOLIEKE UNIVERSITEIT LEUVEN, priority 2010, published 2013).

How the values were obtained:
Format in all cases: cell-based
[1] = tested on: LNCaP cells; assay: Cell death assay (trypan blue dye exclusion)
Source text: At the indicated time after exposure to soraphen and/or other compounds, the adherent and floating cells were collected by trypsinization and centrifugation and both cell populations were combined.

[2] = tested on: LNCaP cells; assay: Doxorubicin accumulation (fluorescence microscopy and fluorimetry); conditions: soraphen 100 nM 72 hr, doxorubicin 10 μM 30 min
Protocol: To visualize the intracellular doxorubicin accumulation, doxorubicin was added at a final concentration of 10 μM. After 30 min, the cells were analyzed using a fluorescence microscope (515 nm longpass emission filter) and the LIDA software (Leica Microsystems GmbH).
To measure doxorubicin accumulation fluorimetrically, cells were exposed to 10 μM of doxorubicin for 30 min, washed in PBS, lysed in 0.3 M HCl in 50% ethanol (v:v), and centrifuged at 700 g for 5 min. The fluorescence of doxorubicin was measured at an excitation wavelength of 490 nm and an emission wavelength of 580 nm. Where indicated, media were supplemented with palmitic acid.

[3] = tested on: CD36-positive cells (COS-7 transfected with pCD36); assay: CD36-binding assay
Protocol: LNCaP cells were cultured in the presence or absence of soraphen and/or palmitic acid for 72 hr. The cells were exposed to H2O2 (300 μM) for 30 min. Cells were trypsinized and labeled with Cell Tracker Dye Orange CMRA (C34551). The labeled LNCaP cells (1.5×10^5) were subsequently layered over a monolayer of COS-7 cells, which were cultured on glass coverslips and transfected with a CD36-encoding construct (pCD36) or the corresponding empty vector (pEF-BOS) (both kindly provided by R. Thorne, University of Newcastle, Australia). Cells were co-cultured in 1 ml of RPMI medium for 1 hr at 37° C. After extensive washing, the cultures were fixed and imaged. The fluorescence signal of the CellTracker Dye was measured using Adobe Photoshop software (San Jose, Calif.).

[4] = tested on: LNCaP cells; assay: Lipid peroxidation product assay
Protocol: Equal amounts of cells were scraped in ice-cold PBS, kept on ice for 15 min, and then sonicated (10 bursts). After centrifugation at 3,000 g for 10 min, the supernatants were analyzed using a lipid peroxidation assay kit (Oxford Biomedical Research, Oxford, Mich.) that quantifies the amount of malondialdehydes and 4-hydroxyalkenals, which are generated from fatty acid peroxide decomposition.

[5] = tested on: LNCaP cells; assay: Doxorubicin flip-flop rate (NBD-PE quenching); conditions: soraphen 100 nM 72 hr, doxorubicin 10 μM, similar with verapamil 100 μM
Protocol: To measure the flip-flop rate of doxorubicin, cells were treated with soraphen or vehicle for 72 hr. During the last 24 hr of treatment, 10 μM of NBD-phosphatidylethanolamine (NBD-PE; Invitrogen) was added. Verapamil was added at a concentration of 100 μM 1 hr prior to harvesting the cells by trypsinization. The doxorubicin flip-flop rate across the plasma membrane was measured as the reduction in fluorescence of NBD due to quenching of NBD-PE by doxorubicin (Regev et al., 2005) (See Supplemental Methods for details).

[6] = tested on: LNCaP cells; assay: Analysis of intact phospholipid species by ESI-MS/MS; conditions: soraphen 100 nM, 72 hr, versus vehicle
Protocol: To prepare lipid extracts for ESI-MS/MS analysis, the tissue or cells were homogenized in 1.6 ml of 0.1 N HCl:CH3OH 1:1 (v/v). CHCl3 (0.8 ml) and 200 μg/ml of the anti-oxidant 2,6-di-tert-butyl-4-methylphenol (Sigma) were added (Milne et al., 2006). After addition of the lipid standards, the organic fractions were collected by centrifugation at 200 g for 5 min. Samples were evaporated and reconstituted in CH3OH:CHCl3:NH4OH (90:10:1.25, v/v/v) and the lipids were analyzed by electrospray ionization tandem mass spectrometry (ESI-MS/MS) on a hybrid quadrupole linear ion trap mass spectrometer (4000 QTRAP system; Applied Biosystems, Foster City, Calif.) equipped with a robotic nanoflow/ion source (Advion Biosciences). The system was operated in the MRM mode for quantification of individual species. Data were expressed as fold change relative to the control samples (untreated cells or matched normal tissue) and were presented as heatmaps using the Heatmap Builder software (Clifton Watt, Stanford University, USA).

[7] = tested on: fatty acid synthesis in LNCaP cells; assay: 2-14C-acetate incorporation assay and TLC analysis; conditions: soraphen 24 hours, 2-14C-acetate last 4 hours
Protocol: LNCaP cells were treated with soraphen or vehicle (ethanol) for 24 hours. The last 4 hours, 2-^14C-labeled acetate (57 mCi/mmol; 2 μCi/dish; Amersham International, Aylesbury, UK) was added to the culture medium. Lipids were extracted according to a modified Bligh-Dyer method as previously described (De Schrijver et al., 2003). To analyze the incorporation of 2-^14C-acetate into different lipid classes, TLC analysis was performed and the lipids were exposed to a PhosphorImager screen for quantification (Molecular Dynamics, Sunnyvale, Calif.), as previously described (De Schrijver et al., 2003).

COc1cccc2c1C(=O)c1c(O)c3c(c(O)c1C2=O)C[C@@](O)(C(=O)CO)C[C@@H]3O[C@H]1C[C@H](N)[C@H](O)[C@H](C)O1 [doxorubicin]
cell death ([1]; standard culture, doxorubicin 4 μM last 24 hr): 8%

CO[C@H]1CCCC[C@@H](c2ccccc2)OC(=O)[C@@H](C)[C@@]2(O)O[C@H]([C@@H](C)[C@H](O)[C@H]2OC)[C@@H](C)/C=C/[C@H]1OC [soraphen, Soraphen A]
intracellular accumulation of doxorubicin [2]: significant increase
number of CD36-bound LNCaP cells ([3]; soraphen 100 nM 72 hr followed by 300 μM H2O2 for 30 min): substantially increased
cell death in response to H2O2 ([1]; soraphen 100 nM 72 hr, 300 μM H2O2 last 24 hr): markedly increased
cell death ([1]; soraphen alone 100 nM 72 hr): up to 20%
levels of lipid peroxidation products ([4]; soraphen 100 nM, 72 hr): significantly increased
increase in the flip-flop rate of doxorubicin [5]: six-fold
decrease of PC species with one degree of unsaturation [6]: up to four-fold
effect on PC species with two unsaturations [6]: ambiguous or minor net effect
increase of PC species with more unsaturations (>three) [6]: up to eight-fold
inhibition of fatty acid synthesis / de novo lipogenesis by 2-14C-acetate incorporation [7]: Inhibition of fatty acid synthesis, and as such de novo lipogenesis was confirmed

CCCCCCCCCCCCCCCC(=O)O [palmitic acid]
effect on soraphen-induced doxorubicin accumulation ([2]; palmitic acid 75 μM): counteracted the effects of soraphen
effect on soraphen-induced increase of CD36-bound LNCaP cells ([3]; soraphen 100 nM 72 hr, 300 μM H2O2 30 min, exogenous palmitic acid 75 μM): counteracted these effects
effect on soraphen-sensitized H2O2-induced cell death (rescue) ([1]; soraphen 100 nM 72 hr, 300 μM H2O2 last 24 hr, fatty acid supplement 75 μM): counteracted
effect on soraphen/doxorubicin-induced cell death ([1]; soraphen 100 nM, doxorubicin 4 μM, palmitic acid 75 μM): largely rescued the cells from death
effect on soraphen/H2O2-induced increase in lipid peroxidation products ([4]; soraphen 100 nM 72 hr, 200 μM H2O2 last 2 hr, exogenous palmitic acid 75 μM): largely reversed these changes
